Results from US20050209320A1 (priority 2003, published 2005).
Read-outs that look alike come from different tables or passages of the source.

Tests used:
[1] = system: LNCaP prostate cancer cells (express AR)
Androgen Receptor (AR) = biological target: T1, Androgen Receptor (AR) (Rattus norvegicus, UniProt P15207); assay type: binding
T1 sequence (P15207 1-902): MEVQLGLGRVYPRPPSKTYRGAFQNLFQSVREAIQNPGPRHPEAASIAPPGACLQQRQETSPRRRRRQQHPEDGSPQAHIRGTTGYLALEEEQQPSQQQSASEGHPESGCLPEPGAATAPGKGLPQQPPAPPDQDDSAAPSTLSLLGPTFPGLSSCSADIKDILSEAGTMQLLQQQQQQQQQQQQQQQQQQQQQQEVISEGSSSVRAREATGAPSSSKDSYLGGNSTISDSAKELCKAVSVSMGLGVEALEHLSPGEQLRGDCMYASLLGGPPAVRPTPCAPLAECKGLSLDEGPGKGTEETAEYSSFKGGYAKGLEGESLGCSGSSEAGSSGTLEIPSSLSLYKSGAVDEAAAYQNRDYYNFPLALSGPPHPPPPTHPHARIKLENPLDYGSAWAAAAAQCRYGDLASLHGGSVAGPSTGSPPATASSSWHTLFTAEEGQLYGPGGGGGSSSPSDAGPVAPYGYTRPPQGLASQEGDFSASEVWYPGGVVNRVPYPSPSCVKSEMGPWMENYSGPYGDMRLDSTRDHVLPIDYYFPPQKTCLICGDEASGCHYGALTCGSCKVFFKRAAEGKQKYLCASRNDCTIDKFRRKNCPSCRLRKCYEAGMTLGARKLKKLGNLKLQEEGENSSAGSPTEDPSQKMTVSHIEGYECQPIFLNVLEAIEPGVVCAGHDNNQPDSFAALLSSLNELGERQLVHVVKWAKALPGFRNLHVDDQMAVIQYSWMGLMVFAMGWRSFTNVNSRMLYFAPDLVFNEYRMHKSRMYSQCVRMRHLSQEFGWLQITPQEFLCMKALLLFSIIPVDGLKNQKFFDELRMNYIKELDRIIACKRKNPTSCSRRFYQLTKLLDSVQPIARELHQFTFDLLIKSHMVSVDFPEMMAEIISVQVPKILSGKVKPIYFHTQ

[2] = system: CV-1 monkey kidney cells (do not express AR); settings: for IC50: read-out: Growth Curve CV-1
[3] = system: LNCaP prostate cancer cells (express AR); settings: for IC50: read-out: Growth Curve LNCaP
[4] = system: LNCaP prostate cancer cells (express AR); test: cells; settings: Homo sapiens, 120 h, read-out: Growth Curve LNCaP

Structure (SMILES) | IC50 [2] [nM] | cytotoxicity / cell growth inhibition in LNCaP cells [3] | IC50 [3] [nM] | other results
OCCN(CCO)c1ccc(O)cc1 [Compound 4] |  |  |  | cytotoxicity in LNCaP cells [1]: nontoxic; Ki (nM) (Androgen Receptor (AR)): DNB
C[C@](O)(COc1ccc(N(CCCl)CCCl)cc1)C(=O)Nc1ccc(C#N)c(I)c1.Cl [Compound 7] | 2610 | potent and selective cell growth inhibition effect | 330 | 
C[C@](O)(CS(=O)(=O)c1ccc(OC(=O)N(CCCl)CCCl)cc1)C(=O)Nc1ccc([N+](=O)[O-])c(C(F)(F)F)c1 [Compound 10] | 2600 |  | 1500 | 
C[C@](O)(CSc1ccc(OC(=O)N(CCCl)CCCl)cc1)C(=O)Nc1ccc([N+](=O)[O-])c(C(F)(F)F)c1 [Compound 6] | 4650 |  | 800 | 
C[C@](O)(COc1ccc(N(CCO)CCO)cc1)C(=O)Nc1ccc(C#N)c(C(F)(F)F)c1 [Compound 2] |  | not cytotoxic |  | cytotoxicity in CV-1 cells [2]: not cytotoxic; max inhibition [3]: Trypan Blue (max 65% inhibition); IC50 [4]: 770 nM
C[C@](O)(COc1ccc(N(CCCl)CCCl)cc1)C(=O)Nc1ccc(C#N)c(C(F)(F)F)c1.Cl [Compound 1] | 1940 |  | 860 | cytotoxicity in CV-1 cells [2]: cytotoxic; potency in CV-1 cells less than in LNCaP cells [2]: approximately 3.5 fold
C[C@](O)(COc1ccc(N(CCCl)CCCl)cc1)C(=O)Nc1ccc([N+](=O)[O-])c(C(F)(F)F)c1.Cl [Compound 8] | 5200 | potent and selective cell growth inhibition effect | 810 | 
